In assay [1] the test system is 15N-25U32G-riboSAM hybridized with 19 nt-DNA (DNA:RNA, riboswitch) GGGAAGAAAUAACAAUCAACGACGUAUCAUUGUGCCUCGCUUUCCGCGGGGCGAUAAGUCCUGAAGAAAGGGAUGAUAUGACAUAAGAACAUCGG/CCGATGTTCTTATGTCATA
In words: 1H15N-HSQC NMR. Conditions: 25 mM K2HPO4, 50 mM KCl, 2 mM MgCl2; pH 6.5; 3' end blocked by 19-nt DNA.

Assay [2] has as its system 15N-16U24G-riboSAM (RNA, riboswitch) GGGAAGAAAUAACAAUCAACGACGUAUCAUUGUGCCUCGCUUUCCGCGGGGCGAUAAGUCCUGAAGAAAGGGAUGAUAUGACAUAAGAACAUCGG
In words: 1H15N-HSQC NMR. Conditions: 25 mM K2HPO4, 50 mM KCl, 2 mM MgCl2; pH 6.5, 25 or 37 °C; 0.5 mM RNA, 0.5 mM SAM.

The subject of assay [3] is riboSAM (full-length SAM-VI riboswitch, 95 nt) (RNA, riboswitch) GGGAAGAAAUAACAAUCAACGACGUAUCAUUGUGCCUCGCUUUCCGCGGGGCGAUAAGUCCUGAAGAAAGGGAUGAUAUGACAUAAGAACAUCGG …. The experiment in a line: ITC. Conditions: 100 mM KCl, 10 mM MgCl2; 40 mM HEPES, pH 7.5, room temperature; 45 μM RNA.
Assay [4] has as its system 2AP-mutant (riboSAM mutant, P0 helix disrupted) (RNA, riboswitch, 2-aminopurine at 59 (replaces U59)) GGGAAGAAAUAUGCCUCAACGACGUAUCAUUGUGCCUCGCUUUCCGCGGGGCGAUAAGACCUGAAGAAAGGGAUGAUAUGACAUAAGAACAUCGG
In words: stopped-flow 2AP fluorescence. Conditions: 100 mM KCl, 2 mM MgCl2; 10 mM HEPES, pH 7.5, room temperature; 0.5 μM RNA.

The test system is the same in assay [5]. In words: steady-state 2AP fluorescence titration. Conditions: 100 mM KCl, 2 mM MgCl2; 10 mM HEPES, pH 7.5, room temperature; 0.5 μM RNA; apparent.
Assay [6] relates to 15N-16U24G-riboSAM hybridized with 21 nt-DNA (DNA:RNA, riboswitch) GGGAAGAAAUAACAAUCAACGACGUAUCAUUGUGCCUCGCUUUCCGCGGGGCGAUAAGUCCUGAAGAAAGGGAUGAUAUGACAUAAGAACAUCGG/CCGATGTTCTTATGTCATATC
In words: 1H15N-HSQC NMR. Conditions: 25 mM K2HPO4, 50 mM KCl, 2 mM MgCl2; pH 6.5; 0.5 mM SAM, 0.5 mM RNA; 3' end blocked by 21-nt DNA.

For assay [7], the system named is 2AP-riboSAM (RNA, riboswitch, 2-aminopurine at 59 (replaces U59)) GGGAAGAAAUAACAAUCAACGACGUAUCAUUGUGCCUCGCUUUCCGCGGGGCGAUAAGACCUGAAGAAAGGGAUGAUAUGACAUAAGAACAUCGG
In words: stopped-flow 2AP fluorescence. Conditions: 100 mM KCl, 2 mM MgCl2; 10 mM HEPES, pH 7.5, room temperature; 0.5 μM RNA.

For assay [8] the test system is unchanged. The experiment in a line: steady-state 2AP fluorescence titration. Conditions: 100 mM KCl, 2 mM MgCl2; 10 mM HEPES, pH 7.5, room temperature; 0.5 μM RNA; apparent.

For the compound `C[S+](CC[C@H](N)C(=O)O)C[C@H]1O[C@@H](n2cnc3c(N)ncnc32)[C@H](O)[C@@H]1O` (some centres unmarked), the binding result in assay [1] is “yes”; in assay [2] it was “yes”; in assay [6], “no”. The Kd in assay [3] was 1.03 ± 0.23 µM; in assay [5], ~ 11.861 ± 0.341 μM; in assay [8], 9.650 ± 0.065 µM. In addition, the Kon is 4480 ± 51 M⁻¹ s⁻¹ in assay [4] and 5690 ± 83 M⁻¹ s⁻¹ in assay [7].
